Test results reported in ChEMBL document CHEMBL1149957, “MALONIC ACID DERIVATIVES AS SIALYL LEWIS X MIMETICS” (Bioorg Med Chem Lett, 1997).

Columns and labels:
HL-60 [1] = experiment: Tested for the inhibition of HL60 cell adhesion to recombinant E-selectin-IgG fusion protein measured by cell culture assay.; format: functional, cell-based; conditions: Homo sapiens
HL-60 [2] = experiment: Tested for the inhibition of HL60 cell adhesion to recombinant P-selectin-IgG fusion protein measured by cell culture assay.; format: functional, cell-based; conditions: Homo sapiens
Rattus norvegicus [3] = experiment: Tested for the inhibition of leukocyte adhesion in rat mesenteric venules in vivo at a dose of 10 mg/kg measured by intravital microscopy.; format: functional
Rattus norvegicus [4] = experiment: Tested for the inhibition of leukocyte adhesion in rat mesenteric venules in vivo at a dose of 3 mg/kg measured by intravital microscopy.; format: functional
Rattus norvegicus [5] = experiment: Tested for the inhibition of leukocyte adhesion in rat mesenteric venules in vivo at a dose of 1 mg/kg measured by intravital microscopy.; format: functional

Compound	IC50 (HL-60 [1]) [mM]	IC50 (HL-60 [2]) [mM]	inhibition in vivo at 10 mg/kg (Rattus norvegicus [3]) [%]	inhibition in vivo at 3 mg/kg (Rattus norvegicus [4]) [%]	inhibition in vivo at 1 mg/kg (Rattus norvegicus [5]) [%]
CC1OC(OC2CCCCC2OCCCCC(C(=O)O)C(=O)O)C(O)C(O)C1O (configuration not stated)	> 5	> 5	–	–	–
CC1OC(OC2CCCCC2OCCCC(C(=O)O)C(=O)O)C(O)C(O)C1O (configuration not stated)	> 5	> 5	–	–	–
CC1OC(OC2CCCCC2OC(=O)NCCC(C(=O)O)C(=O)O)C(O)C(O)C1O (configuration not stated)	3.4	3.5	58	–	–
CC1OC(OC2CCCCC2OCCCCCCCCC(C(=O)O)C(=O)O)C(O)C(O)C1O (configuration not stated)	> 5	> 5	–	–	–
CC1OC(OC2CCCCC2OC(=O)NCCCCC(C(=O)O)C(=O)O)C(O)C(O)C1O (configuration not stated)	4	4.5	–	–	–
CC1OC(OC2CCCCC2OCCCCCCCCCCC(C(=O)O)C(=O)O)C(O)C(O)C1O (configuration not stated)	> 5	> 5	–	–	–
CC1OC(OC2C(OCCCCCC(C(=O)O)C(=O)O)CCOC2COCCCCc2ccccc2)C(O)C(O)C1O (configuration not stated)	2.6	1.2	–	65	–
CC1OC(OC2CCCCC2OCCCCCCCC(C(=O)O)C(=O)O)C(O)C(O)C1O (configuration not stated)	> 5	> 5	–	–	–
CC1OC(OC2C(OCCCCC(C(=O)O)C(=O)O)CCOC2COCCCCc2ccccc2)C(O)C(O)C1O (configuration not stated)	4.8	3.6	–	62	–
CC1OC(OC2CCCCC2OCCCCCC(C(=O)O)C(=O)O)C(O)C(O)C1O (configuration not stated)	> 5	> 5	–	–	–
CC1OC(OC2CCCCC2OCCCCCCC(C(=O)O)C(=O)O)C(O)C(O)C1O (configuration not stated)	> 5	> 5	–	–	–
CC1OC(OC2CCCCC2OC(=O)NCCCC(C(=O)O)C(=O)O)C(O)C(O)C1O (configuration not stated)	1	0.7	85	44	54
CC(=O)N[C@H]1[C@H]([C@@H](O)[C@@H](O)CO)O[C@@](O[C@@H]2[C@H](O)[C@H](O[C@H]3[C@H](O[C@@H]4O[C@@H](C)[C@@H](O)[C@H](O)[C@@H]4O)[C@H](NC(C)=O)C(O)O[C@H]3CO)O[C@@H](CO)[C@@H]2O)(C(=O)O)C[C@H]1O (some centres not stated)	1.5	3	–	–	–
